Reference: patent US12410208B2, “(2-acetamidyl)thio-beta-D-galactopyranoside derivatives” (Idorsia Pharmaceuticals Ltd, priority 2020, dated 2025)

Tests used:
human Gal-1 (hGal-1) = human Gal-1 (hGal-1) (Homo sapiens, UniProt P09382); assay: Competitive binding assay: biotinylated hGal-1 binding to microplate-adsorbed asialofetuin (ASF), spectrophotometric; settings: hGal-1 binding to asialofetuin; Table 15; R and S epimers of selected Examples also listed; read-out: IC50 (Galectin-1 inhibition)
human Gal-1 (hGal-1), sequence (P09382 whole entry): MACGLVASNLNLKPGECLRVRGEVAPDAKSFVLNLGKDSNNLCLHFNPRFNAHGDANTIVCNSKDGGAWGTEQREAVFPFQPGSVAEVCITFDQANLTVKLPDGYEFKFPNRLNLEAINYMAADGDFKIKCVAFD
Summary of the method: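 Spectrophotometric competition readout with ABTS after streptavidin-peroxidase (80 ng/mL, 1 h, 4 °C) detection of bound biotinylated hGal-1.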

[1] = biological target: biotinylated human Gal-3 (hGal-3) (Homo sapiens, UniProt P17931); assay: Competitive binding assay: biotinylated hGal-3 binding to microplate-adsorbed asialofetuin (ASF), spectrophotometric; settings: Gal-3 inhibition, Table 5; read-out: IC50
biotinylated human Gal-3 (hGal-3), sequence (P17931 whole entry): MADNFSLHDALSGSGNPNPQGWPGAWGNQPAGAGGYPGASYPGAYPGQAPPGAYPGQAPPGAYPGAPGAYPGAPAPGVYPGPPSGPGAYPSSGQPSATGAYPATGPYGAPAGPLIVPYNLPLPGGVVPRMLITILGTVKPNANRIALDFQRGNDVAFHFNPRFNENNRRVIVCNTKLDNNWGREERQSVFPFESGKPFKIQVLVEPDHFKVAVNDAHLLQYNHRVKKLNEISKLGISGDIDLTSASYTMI
Summary of the method: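 Serially diluted compounds competed with asialofetuin on the plate for biotinylated human Gal-3 during a 3 h incubation at 4° C. Streptavidin-peroxidase with ABTS gave the spectrophotometric signal. IC50 values were averaged over repeat runs.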

Structure (SMILES)	IC50 (human Gal-1 (hGal-1)) [nM]	IC50 [1] [nM]
CN(CC(C)(C)F)C(=O)C(S[C@@H]1O[C@H](CO)[C@H](O)[C@H](n2cc(-c3cc(F)c(F)c(F)c3)nn2)[C@H]1O)C1(O)CCC1 (stereo partly drawn) [Example 2.34.222., 2-(((2S,3R,4S,5R,6R)-3,5-Dihydroxy-6-(hydroxymethyl)-4-(4-(3,4,5-trifluorophenyl)-1H-1,2,3-triazol-1-yl)tetrahydro-2H-pyran-2-yl)thio)-N-(2-fluoro-2-methylpropyl)-2-(1-hydroxycyclobutyl)-N-methylacetamide]	220	410
CCN(C)C(=O)C(S[C@@H]1O[C@H](CO)[C@H](O)[C@H](n2cc(-c3cc(F)c(F)c(F)c3)nn2)[C@H]1O)C1(O)CCCC1 (stereo partly drawn) [Example 2.38.203., 2-(((2S,3R,4S,5R,6R)-3,5-Dihydroxy-6-(hydroxymethyl)-4-(4-(3,4,5-trifluorophenyl)-1H-1,2,3-triazol-1-yl)tetrahydro-2H-pyran-2-yl)thio)-N-ethyl-2-(1-hydroxycyclopentyl)-N-methylacetamide]	1130	430
CN(CC(F)(F)F)C(=O)C(S[C@@H]1O[C@H](CO)[C@H](O)[C@H](n2cc(-c3cc(F)c(F)c(F)c3)nn2)[C@H]1O)C1(O)CCCC1 (stereo partly drawn) [Example 2.38.219., 2-(((2S,3R,4S,5R,6R)-3,5-Dihydroxy-6-(hydroxymethyl)-4-(4-(3,4,5-trifluorophenyl)-1H-1,2,3-triazol-1-yl)tetrahydro-2H-pyran-2-yl)thio)-2-(1-hydroxycyclopentyl)-N-methyl-N-(2,2,2-trifluoroethyl)acetamide]	110	40
CN(CC(C)(C)C)C(=O)C(S[C@@H]1O[C@H](CO)[C@H](O)[C@H](n2cc(-c3cc(F)c(F)c(F)c3)nn2)[C@H]1O)C1(O)CCCC1 (stereo partly drawn) [Example 2.38.228., 2-(((2S,3R,4S,5R,6R)-3,5-Dihydroxy-6-(hydroxymethyl)-4-(4-(3,4,5-trifluorophenyl)-1H-1,2,3-triazol-1-yl)tetrahydro-2H-pyran-2-yl)thio)-2-(1-hydroxycyclopentyl)-N-methyl-N-neopentylacetamide]	170	150
CCN(C)C(=O)C(S[C@@H]1O[C@H](CO)[C@H](O)[C@H](n2cc(-c3cc(F)c(F)c(F)c3)nn2)[C@H]1O)C1(O)CCCCC1 (stereo partly drawn) [Example 2.39.203., 2-(((2S,3R,4S,5R,6R)-3,5-Dihydroxy-6-(hydroxymethyl)-4-(4-(3,4,5-trifluorophenyl)-1H-1,2,3-triazol-1-yl)tetrahydro-2H-pyran-2-yl)thio)-N-ethyl-2-(1-hydroxycyclohexyl)-N-methylacetamide]	170	70
CN(CC(F)(F)F)C(=O)[C@H](S[C@@H]1O[C@H](CO)[C@H](O)[C@H](n2cc(-c3cc(F)c(F)c(F)c3)nn2)[C@H]1O)C1(O)CCCCC1 [Example 2.39.219R., (R)-2-(((2S,3R,4S,5R,6R)-3,5-Dihydroxy-6-(hydroxymethyl)-4-(4-(3,4,5-trifluorophenyl)-1H-1,2,3-triazol-1-yl)tetrahydro-2H-pyran-2-yl)thio)-2-(1-hydroxycyclohexyl)-N-methyl-N-(2,2,2-trifluoroethyl)acetamide]	550	270
CN(CC(C)(C)F)C(=O)[C@H](S[C@@H]1O[C@H](CO)[C@H](O)[C@H](n2cc(-c3cc(F)c(F)c(F)c3)nn2)[C@H]1O)C1(O)CCCCC1 [Example 2.39.222R., (R)-2-(((2S,3R,4S,5R,6R)-3,5-Dihydroxy-6-(hydroxymethyl)-4-(4-(3,4,5-trifluorophenyl)-1H-1,2,3-triazol-1-yl)tetrahydro-2H-pyran-2-yl)thio)-N-(2-fluoro-2-methylpropyl)-2-(1-hydroxycyclohexyl)-N-methylacetamide]	38100	10200
CN(CC(C)(C)F)C(=O)[C@@H](S[C@@H]1O[C@H](CO)[C@H](O)[C@H](n2cc(-c3cc(F)c(F)c(F)c3)nn2)[C@H]1O)C1(O)CCCCC1 [Example 2.39.222S., (S)-2-(((2S,3R,4S,5R,6R)-3,5-Dihydroxy-6-(hydroxymethyl)-4-(4-(3,4,5-trifluorophenyl)-1H-1,2,3-triazol-1-yl)tetrahydro-2H-pyran-2-yl)thio)-N-(2-fluoro-2-methylpropyl)-2-(1-hydroxycyclohexyl)-N-methylacetamide]	90	20

The remaining compounds from weak to strong by IC50 (human Gal-1 (hGal-1)), led by results:

IC50 (human Gal-1 (hGal-1)) [nM]	IC50 [1] [nM]	Structure (SMILES)
46000	8610	CN(CC(C)(C)F)C(=O)[C@H](S[C@@H]1O[C@H](CO)[C@H](O)[C@H](n2cc(-c3cc(F)c(F)c(F)c3)nn2)[C@H]1O)C1(O)CCC1 [Example 2.34.222R., (R)-2-(((2S,3R,4S,5R,6R)-3,5-Dihydroxy-6-(hydroxymethyl)-4-(4-(3,4,5-trifluorophenyl)-1H-1,2,3-triazol-1-yl)tetrahydro-2H-pyran-2-yl)thio)-N-(2-fluoro-2-methylpropyl)-2-(1-hydroxycyclobutyl)-N-methylacetamide]
22600	5900	CN(CC(C)(C)C)C(=O)[C@H](S[C@@H]1O[C@H](CO)[C@H](O)[C@H](n2cc(-c3cc(F)c(F)c(F)c3)nn2)[C@H]1O)C1(O)CCC1 [Example 2.34.228R., (R)-2-(((2S,3R,4S,5R,6R)-3,5-Dihydroxy-6-(hydroxymethyl)-4-(4-(3,4,5-trifluorophenyl)-1H-1,2,3-triazol-1-yl)tetrahydro-2H-pyran-2-yl)thio)-2-(1-hydroxycyclobutyl)-N-methyl-N-neopentylacetamide]
770	230	O=C(C(S[C@@H]1O[C@H](CO)[C@H](O)[C@H](n2cc(-c3cc(F)c(F)c(F)c3)nn2)[C@H]1O)C1(O)CCCC1)N1CCC1 (stereo partly drawn) [Example 2.38.206., 1-(Azetidin-1-yl)-2-(((2S,3R,4S,5R,6R)-3,5-dihydroxy-6-(hydroxymethyl)-4-(4-(3,4,5-trifluorophenyl)-1H-1,2,3-triazol-1-yl)tetrahydro-2H-pyran-2-yl)thio)-2-(1-hydroxycyclopentyl)ethan-1-one]
160	310	CN(CC(C)(C)C)C(=O)C(S[C@@H]1O[C@H](CO)[C@H](O)[C@H](n2cc(-c3cc(F)c(F)c(F)c3)nn2)[C@H]1O)C1(O)CCC1 (stereo partly drawn) [Example 2.34.228., 2-(((2S,3R,4S,5R,6R)-3,5-Dihydroxy-6-(hydroxymethyl)-4-(4-(3,4,5-trifluorophenyl)-1H-1,2,3-triazol-1-yl)tetrahydro-2H-pyran-2-yl)thio)-2-(1-hydroxycyclobutyl)-N-methyl-N-neopentylacetamide]
120	50	CN(CC(C)(C)F)C(=O)C(S[C@@H]1O[C@H](CO)[C@H](O)[C@H](n2cc(-c3cc(F)c(F)c(F)c3)nn2)[C@H]1O)C1(O)CCCCC1 (stereo partly drawn) [Example 2.39.222., 2-(((2S,3R,4S,5R,6R)-3,5-Dihydroxy-6-(hydroxymethyl)-4-(4-(3,4,5-trifluorophenyl)-1H-1,2,3-triazol-1-yl)tetrahydro-2H-pyran-2-yl)thio)-N-(2-fluoro-2-methylpropyl)-2-(1-hydroxycyclohexyl)-N-methylacetamide]
110	90	CN(CC(C)(C)F)C(=O)[C@@H](S[C@@H]1O[C@H](CO)[C@H](O)[C@H](n2cc(-c3cc(F)c(F)c(F)c3)nn2)[C@H]1O)C1(O)CCC1 [Example 2.34.222S., (S)-2-(((2S,3R,4S,5R,6R)-3,5-Dihydroxy-6-(hydroxymethyl)-4-(4-(3,4,5-trifluorophenyl)-1H-1,2,3-triazol-1-yl)tetrahydro-2H-pyran-2-yl)thio)-N-(2-fluoro-2-methylpropyl)-2-(1-hydroxycyclobutyl)-N-methylacetamide]
100	60	CN(CC(F)(F)F)C(=O)[C@@H](S[C@@H]1O[C@H](CO)[C@H](O)[C@H](n2cc(-c3cc(F)c(F)c(F)c3)nn2)[C@H]1O)C1(O)CCCCC1 [Example 2.39.219S., (S)-2-(((2S,3R,4S,5R,6R)-3,5-Dihydroxy-6-(hydroxymethyl)-4-(4-(3,4,5-trifluorophenyl)-1H-1,2,3-triazol-1-yl)tetrahydro-2H-pyran-2-yl)thio)-2-(1-hydroxycyclohexyl)-N-methyl-N-(2,2,2-trifluoroethyl)acetamide]
90	120	CN(CC(C)(C)C)C(=O)[C@@H](S[C@@H]1O[C@H](CO)[C@H](O)[C@H](n2cc(-c3cc(F)c(F)c(F)c3)nn2)[C@H]1O)C1(O)CCC1 [Example 2.34.228S., (S)-2-(((2S,3R,4S,5R,6R)-3,5-Dihydroxy-6-(hydroxymethyl)-4-(4-(3,4,5-trifluorophenyl)-1H-1,2,3-triazol-1-yl)tetrahydro-2H-pyran-2-yl)thio)-2-(1-hydroxycyclobutyl)-N-methyl-N-neopentylacetamide]
70	20	O=C(C(S[C@@H]1O[C@H](CO)[C@H](O)[C@H](n2cc(-c3cc(F)c(F)c(F)c3)nn2)[C@H]1O)C1(O)CCCCC1)N1CCCCC1 (stereo partly drawn) [Example 2.39.208., 2-(((2S,3R,4S,5R,6R)-3,5-Dihydroxy-6-(hydroxymethyl)-4-(4-(3,4,5-trifluorophenyl)-1H-1,2,3-triazol-1-yl)tetrahydro-2H-pyran-2-yl)thio)-2-(1-hydroxycyclohexyl)-1-(piperidin-1-yl)ethan-1-one]
20	30	CN(C(=O)C(S[C@@H]1O[C@H](CO)[C@H](O)[C@H](n2cc(-c3cc(F)c(F)c(F)c3)nn2)[C@H]1O)C1(O)CCCC1)C1CCC1 (stereo partly drawn) [Example 2.38.220., N-Cyclobutyl-2-(((2S,3R,4S,5R,6R)-3,5-dihydroxy-6-(hydroxymethyl)-4-(4-(3,4,5-trifluorophenyl)-1H-1,2,3-triazol-1-yl)tetrahydro-2H-pyran-2-yl)thio)-2-(1-hydroxycyclopentyl)-N-methylacetamide]
